Numbers after ± are expanded uncertainties.

The conditions of data set [1]: Crystal; DTA.
Data set [2] is described as follows: Molar enthalpy of transition or fusion. The settings on record: Crystal; DSC.

For `COc1ccc2cc3[n+](cc2c1OC)CCc1cc2c(cc1-3)OCO2.[Cl-]`, the Normal melting temperature in data set [1] is 200.1 ± 1.1 °C. Moreover, the “Molar enthalpy of transition or fusion” value in data set [2] amounted to 9.53 ± 0.213 kcal/mol.
